The supplement of paper PMC13380429

What was measured:
[1] = tested on: A549-ACE2 infected with SARS-CoV-2; assay: cell count relative to DMSO; higher = less toxic; conditions: 24 h
[2] = tested on: A549-ACE2 infected with SARS-CoV-2; assay: SARS-CoV-2 infection rate relative to DMSO; higher = more infection; conditions: 24 h
[3] = tested on: HepG2; assay: drug sensitivity score (DSS) for viability; higher = more toxic; extreme values may be limits of the assay; conditions: 72 h
[4] = tested on: Vero E6; assay: as above; conditions: 72 h
[5] = tested on: Calu-3; assay: as above; conditions: 72 h
[6] = tested on: U2OS; assay: as above; conditions: 72 h
[7] = tested on: Caco-2; assay: as above; conditions: 72 h
[8] = tested on: HepG2; assay: relative viability EC50 (midpoint between 100% and the lowest measured viability); higher = less toxic; conditions: 72 h
[9] = tested on: Vero E6; assay: as above; conditions: 72 h
[10] = tested on: Calu-3; assay: as above; conditions: 72 h
[11] = tested on: U2OS; assay: as above; conditions: 72 h
[12] = tested on: Caco-2; assay: as above; conditions: 72 h
[13] = tested on: HepG2; assay: cell viability relative to DMSO; higher = less toxic; conditions: 72 h
[14] = tested on: Vero E6; assay: as above; conditions: 72 h
[15] = tested on: Calu-3; assay: as above; conditions: 72 h
[16] = tested on: U2OS; assay: as above; conditions: 72 h
[17] = tested on: Caco-2; assay: as above; conditions: 72 h
[18] = tested on: A549-ACE2; assay: phospholipidosis EC50; higher = less potent phospholipidosis inducer
[19] = tested on: A549-ACE2 infected with SARS-CoV-2; assay: morphology score (similarity to uninfected cells); higher = more like uninfected cells; conditions: 24 h
[20] = tested on: A549-ACE2; assay: drug-induced phospholipidosis relative to tamoxifen; higher = more phospholipidosis

OCCN1CCN(CC/C=C2/c3ccccc3Sc3ccc(C(F)(F)F)cc32)CC1 [flupentixol]
Conditions	SARS-CoV-2 infection rate [%]	cell count [%]	cell viability [%]	morphology score	phospholipidosis EC50 [µM]
[1], 0.3 µM	–	107	–	–	–
[1], 3 µM	–	113	–	–	–
[1], 10 µM	–	124	–	–	–
[1], 30 µM	–	96	–	–	–
[2], 0.3 µM	97	–	–	–	–
[2], 3 µM	66	–	–	–	–
[2], 10 µM	17	–	–	–	–
[2], 30 µM	46	–	–	–	–
[13], 1 nM	–	–	97.2	–	–
[13], 10 nM	–	–	93.8	–	–
[13], 100 nM	–	–	90	–	–
[13], 1000 nM	–	–	96.9	–	–
[13], 10000 nM	–	–	89.9	–	–
[14], 1 nM	–	–	98.1	–	–
[14], 10 nM	–	–	96.9	–	–
[14], 100 nM	–	–	98.1	–	–
[14], 1000 nM	–	–	91.8	–	–
[14], 10000 nM	–	–	93.1	–	–
[15], 1 nM	–	–	85.3	–	–
[15], 10 nM	–	–	87.7	–	–
[15], 100 nM	–	–	106	–	–
[15], 1000 nM	–	–	94.7	–	–
[15], 10000 nM	–	–	87	–	–
[16], 1 nM	–	–	99.2	–	–
[16], 10 nM	–	–	89.9	–	–
[16], 100 nM	–	–	105	–	–
[16], 1000 nM	–	–	94.6	–	–
[16], 10000 nM	–	–	92.1	–	–
[17], 1 nM	–	–	90.3	–	–
[17], 10 nM	–	–	93.7	–	–
[17], 100 nM	–	–	95.2	–	–
[17], 1000 nM	–	–	87.6	–	–
[17], 10000 nM	–	–	92.4	–	–
[18], 24 h	–	–	–	–	17
[18], 48 h	–	–	–	–	8.95
[18], 72 h	–	–	–	–	10.2
[19], 0.3 µM	–	–	–	0.2	–
[19], 3 µM	–	–	–	0.62	–
[19], 10 µM	–	–	–	0.88	–
[19], 30 µM	–	–	–	0.36	–

Conditions	drug sensitivity score	relative viability EC50 [µM]
[3]	0	–
[4]	0	–
[5]	0.6	–
[6]	0	–
[7]	0	–
[8]	–	> 10
[9]	–	> 10
[10]	–	> 10
[11]	–	> 10
[12]	–	> 10

drug-induced phospholipidosis [%], [20]
Conditions	0.3 µM	0.833333 µM	3.33333 µM	6.66667 µM	10 µM	30 µM
24 h	4.08	5.01	30.1	43.1	72.8	122
48 h	5.09	0.98	25.8	36.9	80	116
72 h	7.2	2.4	18.4	31.8	74.8	138

CNCc1ccc(C)c(NC(=O)c2ccc(Nc3nc(-c4ccccc4)c4ccccc4n3)cc2)c1
Conditions	SARS-CoV-2 infection rate [%]	cell count [%]	cell viability [%]	morphology score	phospholipidosis EC50 [µM]
[1], 0.1 µM	–	103	–	–	–
[1], 0.3 µM	–	101	–	–	–
[1], 1 µM	–	108	–	–	–
[1], 3 µM	–	127	–	–	–
[2], 0.1 µM	99	–	–	–	–
[2], 0.3 µM	86	–	–	–	–
[2], 1 µM	89	–	–	–	–
[2], 3 µM	24	–	–	–	–
[13], 1 nM	–	–	107	–	–
[13], 10 nM	–	–	104	–	–
[13], 100 nM	–	–	105	–	–
[13], 1000 nM	–	–	88.3	–	–
[13], 10000 nM	–	–	36.8	–	–
[14], 1 nM	–	–	101	–	–
[14], 10 nM	–	–	99.6	–	–
[14], 100 nM	–	–	100	–	–
[14], 1000 nM	–	–	98.2	–	–
[14], 10000 nM	–	–	42.1	–	–
[15], 1 nM	–	–	96.6	–	–
[15], 10 nM	–	–	101	–	–
[15], 100 nM	–	–	102	–	–
[15], 1000 nM	–	–	92	–	–
[15], 10000 nM	–	–	4.1	–	–
[16], 1 nM	–	–	100	–	–
[16], 10 nM	–	–	101	–	–
[16], 100 nM	–	–	103	–	–
[16], 1000 nM	–	–	100	–	–
[16], 10000 nM	–	–	35.3	–	–
[17], 1 nM	–	–	93.8	–	–
[17], 10 nM	–	–	99.5	–	–
[17], 100 nM	–	–	90.1	–	–
[17], 1000 nM	–	–	98.3	–	–
[17], 10000 nM	–	–	25.4	–	–
[18], 24 h	–	–	–	–	1.58
[18], 48 h	–	–	–	–	1.49
[18], 72 h	–	–	–	–	2.07
[19], 0.1 µM	–	–	–	0.21	–
[19], 0.3 µM	–	–	–	0.36	–
[19], 1 µM	–	–	–	0.34	–
[19], 3 µM	–	–	–	0.88	–

Conditions	drug sensitivity score	relative viability EC50 [µM]
[3]	5.4	–
[4]	3.4	–
[5]	6.6	–
[6]	3.5	–
[7]	4.3	–
[8]	–	1.81
[9]	–	2.94
[10]	–	2.48
[11]	–	3.21
[12]	–	3

drug-induced phospholipidosis [%], [20]
Conditions	0.3 µM	0.833333 µM	3.33333 µM	6.66667 µM	10 µM	30 µM
24 h	5.53	23.7	77.2	98.9	84.8	99.7
48 h	5.67	17.1	89.4	102	92.4	–
72 h	1.97	13.2	86.2	99.1	115	–
